Results from patent US9999622B2, “Pyrazolothiazole compound and medicine comprising same” (NIPPON SHINYAKU CO., LTD., priority 2014, dated 2018).
Where a name gives a salt, the structure may show the parent alone.

Assays:
Type in all cases: biochemical
[1] = molecular target: T1, JAK1 (Homo sapiens, UniProt P23458); assay: JAK tyrosine kinase inhibitory activity in the presence of 1 mM ATP (ELISA), JAK1
T1 construct: purchased Carna Biosciences, Inc
Protocol: (§1) 1. Preparation of Test Compound
(§2) The test compound was dissolved in dimethyl sulfoxide (DMSO) to 10 mM and further diluted with DMSO to the concentrations of 1000, 100, 10, 1, 0.1 and 0.01 μM, respectively. For JAK1, these solutions of the test compound at the six concentrations 10 mM, 1000 μM, 100 μM, 10 μM, 1 μM and 0.1 μM were used. For JAK2 and JAK3, these solutions of the test compound at the six concentrations 1000 μM, 100 μM, 10 μM, 1 μM, 0.1 μM and 0.01 μM were used. The test compound solutions were diluted further to 20-fold with an assay buffer to obtain a sample solution. 15 mM Tris-HCl (pH7.5), 0.01 (v/v) % Tween-20 and 1 mM dithiothreitol were used as an assay buffer. DMSO was diluted to 20-fold with the assay buffer and was used as a negative control.
(§3) 2. JAK Tyrosine Kinase Inhibitory Activity in the Presence of 1 mM Atp
(§4) The activity was determined by ELISA method. Each of the sample solutions was added to a streptavidine coated 96-well plate (DELFIA Strip Plate 8×12 well, PerkinElmer) at 10 μL/well (n=2). […] Finally, JAK tyrosine kinase (Carna Biosciences, Inc.), which was previously diluted with the assay buffer to 7.5 nM for JAK1 and 0.75 nM for JAK2 and JAK3, was added to the plate at 20 μL/well, and the plate was incubated at 30° C. for 1 h. The plate was washed four times with buffer (50 mM Tris-HCl (pH 7.5), 150 mM NaCl, 0.02 (v/v) % Tween-20). A blocking buffer (0.1% Bovine Serum Albumin, 50 mM Tris-HCl (pH 7.5), 150 mM NaCl, 0.02 (v/v) % Tween-20) was added to the plate at 150 μL/well and the plate was blocked at 30° C. for 1 h. The blocking buffer was removed, and a horse radish peroxidase-labeled anti-phosphorylated tyrosine antibody (BD Biosciences, Inc.) (diluted to 10000-fold with the blocking buffer) was added to the plate at 100 μL/well, and the plate was incubated at 30° C. for 30 min. The plate was washed with the washing buffer four times, and 3,3′,5,5′-tetramethylbenizidine solution (Nacalai Tesque) was added to the plate at 100 μL/well to develop the color for 10 minutes. To the plate was added 0.1 M sulfuric acid at 100 μL/well to stop the reaction. The absorbance at 450 nm was measured using a microplate reader (BIO-RAD).
(§5) 3. Analysis of the Results

[2] = molecular target: T2, JAK3 (Homo sapiens, UniProt P52333); assay: JAK tyrosine kinase inhibitory activity in the presence of 1 mM ATP (ELISA), JAK3
T2 construct: purchased Carna Biosciences, Inc
T2 sequence (P52333 1-1124): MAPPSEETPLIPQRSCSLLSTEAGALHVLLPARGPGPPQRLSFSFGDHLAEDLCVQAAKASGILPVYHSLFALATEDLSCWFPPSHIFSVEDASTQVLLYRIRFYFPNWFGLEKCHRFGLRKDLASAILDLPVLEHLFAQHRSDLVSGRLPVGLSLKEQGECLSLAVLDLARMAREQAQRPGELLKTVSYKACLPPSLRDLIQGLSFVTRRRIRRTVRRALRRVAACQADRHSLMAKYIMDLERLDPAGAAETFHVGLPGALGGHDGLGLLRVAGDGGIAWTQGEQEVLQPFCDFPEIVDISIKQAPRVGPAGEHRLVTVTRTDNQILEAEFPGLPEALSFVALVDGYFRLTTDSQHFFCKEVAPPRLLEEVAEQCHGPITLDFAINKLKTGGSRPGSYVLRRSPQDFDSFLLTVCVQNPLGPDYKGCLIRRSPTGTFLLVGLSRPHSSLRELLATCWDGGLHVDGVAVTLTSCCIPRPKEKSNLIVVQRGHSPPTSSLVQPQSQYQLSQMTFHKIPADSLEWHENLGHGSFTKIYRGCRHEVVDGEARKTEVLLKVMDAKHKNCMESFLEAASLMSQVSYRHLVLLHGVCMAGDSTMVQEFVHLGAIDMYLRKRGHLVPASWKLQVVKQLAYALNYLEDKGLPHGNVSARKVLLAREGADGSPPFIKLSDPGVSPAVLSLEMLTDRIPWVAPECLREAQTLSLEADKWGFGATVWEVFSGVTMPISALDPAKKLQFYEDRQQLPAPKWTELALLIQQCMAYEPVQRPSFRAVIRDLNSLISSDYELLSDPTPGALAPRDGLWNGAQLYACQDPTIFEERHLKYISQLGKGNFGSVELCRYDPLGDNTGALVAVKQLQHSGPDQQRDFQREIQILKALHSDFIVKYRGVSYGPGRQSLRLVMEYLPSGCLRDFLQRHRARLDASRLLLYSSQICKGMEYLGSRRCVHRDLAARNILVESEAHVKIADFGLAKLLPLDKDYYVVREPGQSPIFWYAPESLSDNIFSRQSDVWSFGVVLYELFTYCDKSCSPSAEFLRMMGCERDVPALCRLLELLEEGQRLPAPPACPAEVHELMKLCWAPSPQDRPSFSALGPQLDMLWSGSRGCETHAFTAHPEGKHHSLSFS
Protocol: as §1, §2, §3, §4, §5

[3] = molecular target: T3, JAK2 (Homo sapiens, UniProt O60674); assay: JAK tyrosine kinase inhibitory activity in the presence of 1 mM ATP (ELISA), JAK2
T3 construct: purchased Carna Biosciences, Inc
T3 sequence (O60674 whole entry): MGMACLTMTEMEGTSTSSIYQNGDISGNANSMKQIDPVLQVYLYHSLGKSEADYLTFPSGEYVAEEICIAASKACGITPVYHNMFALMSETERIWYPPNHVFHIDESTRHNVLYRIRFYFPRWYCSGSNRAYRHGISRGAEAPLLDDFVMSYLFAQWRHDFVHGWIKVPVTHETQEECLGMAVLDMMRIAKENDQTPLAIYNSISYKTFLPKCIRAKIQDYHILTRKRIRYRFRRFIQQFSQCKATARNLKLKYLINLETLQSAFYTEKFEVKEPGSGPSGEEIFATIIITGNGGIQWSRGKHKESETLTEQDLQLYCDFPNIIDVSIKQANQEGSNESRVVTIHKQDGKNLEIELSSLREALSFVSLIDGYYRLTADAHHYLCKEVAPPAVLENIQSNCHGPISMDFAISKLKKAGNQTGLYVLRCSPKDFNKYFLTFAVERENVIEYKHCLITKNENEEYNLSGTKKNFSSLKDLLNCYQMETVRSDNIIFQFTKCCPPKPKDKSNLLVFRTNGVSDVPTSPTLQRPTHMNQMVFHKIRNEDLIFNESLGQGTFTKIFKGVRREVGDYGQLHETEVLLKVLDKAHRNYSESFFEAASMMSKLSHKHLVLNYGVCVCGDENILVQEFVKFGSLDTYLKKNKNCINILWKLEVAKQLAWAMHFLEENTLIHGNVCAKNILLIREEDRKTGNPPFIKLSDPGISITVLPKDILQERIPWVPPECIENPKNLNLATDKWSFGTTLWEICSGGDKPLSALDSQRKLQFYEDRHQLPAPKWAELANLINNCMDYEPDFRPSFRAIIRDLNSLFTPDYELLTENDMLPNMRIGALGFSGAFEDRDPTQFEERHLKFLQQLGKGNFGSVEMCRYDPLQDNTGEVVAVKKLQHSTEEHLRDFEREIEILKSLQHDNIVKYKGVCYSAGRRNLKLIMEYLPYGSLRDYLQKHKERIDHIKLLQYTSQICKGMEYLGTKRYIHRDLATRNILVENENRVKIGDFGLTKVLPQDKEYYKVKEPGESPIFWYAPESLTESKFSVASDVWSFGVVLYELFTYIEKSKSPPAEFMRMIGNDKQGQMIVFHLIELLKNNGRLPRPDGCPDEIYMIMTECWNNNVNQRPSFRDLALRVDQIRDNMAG
Protocol: as §1, §2, §3, §4, §5

T1 sequence (P23458 whole entry): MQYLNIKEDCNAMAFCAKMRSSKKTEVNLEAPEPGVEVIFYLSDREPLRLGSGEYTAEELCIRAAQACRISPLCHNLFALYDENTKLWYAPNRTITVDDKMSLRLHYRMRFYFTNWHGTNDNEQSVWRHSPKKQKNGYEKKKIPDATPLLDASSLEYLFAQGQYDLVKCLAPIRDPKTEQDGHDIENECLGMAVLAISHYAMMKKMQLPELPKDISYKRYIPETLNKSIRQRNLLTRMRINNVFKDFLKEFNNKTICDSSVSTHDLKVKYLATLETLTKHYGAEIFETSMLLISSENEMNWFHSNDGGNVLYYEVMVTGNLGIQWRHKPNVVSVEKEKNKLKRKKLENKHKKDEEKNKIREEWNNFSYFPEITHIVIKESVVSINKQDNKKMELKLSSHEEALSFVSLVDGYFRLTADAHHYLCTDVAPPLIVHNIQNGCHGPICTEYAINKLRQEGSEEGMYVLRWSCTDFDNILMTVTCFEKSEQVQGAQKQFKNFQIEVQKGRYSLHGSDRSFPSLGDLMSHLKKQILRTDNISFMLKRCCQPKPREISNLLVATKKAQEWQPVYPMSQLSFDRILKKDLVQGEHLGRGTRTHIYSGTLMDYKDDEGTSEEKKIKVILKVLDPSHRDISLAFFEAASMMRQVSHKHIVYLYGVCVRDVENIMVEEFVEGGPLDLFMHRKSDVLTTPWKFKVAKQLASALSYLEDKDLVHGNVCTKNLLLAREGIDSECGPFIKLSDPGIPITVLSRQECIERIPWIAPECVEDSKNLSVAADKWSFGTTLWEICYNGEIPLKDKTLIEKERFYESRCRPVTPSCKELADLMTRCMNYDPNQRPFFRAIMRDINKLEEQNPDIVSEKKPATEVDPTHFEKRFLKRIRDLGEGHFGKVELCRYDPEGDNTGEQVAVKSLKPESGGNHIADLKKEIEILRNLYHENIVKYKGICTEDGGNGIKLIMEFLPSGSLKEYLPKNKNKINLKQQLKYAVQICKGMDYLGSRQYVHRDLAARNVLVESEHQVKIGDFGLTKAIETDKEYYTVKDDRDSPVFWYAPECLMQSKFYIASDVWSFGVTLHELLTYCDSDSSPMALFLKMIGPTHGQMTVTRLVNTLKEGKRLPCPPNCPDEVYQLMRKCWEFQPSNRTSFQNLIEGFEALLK

Row | Structure (SMILES) | IC50 [1] [nM] | IC50 [2] [nM] | IC50 [3] [nM]
1 | CCC(CC)Nc1cc(C(=O)N2CCC(NC(=O)OC)CC2)nc(-c2cnn3ccsc23)n1 [Example 109, Methyl (1-{[6-(pentan-3-ylamino)-2-(pyrazolo[5,1-b][1,3]thiazol-7-yl)pyrimidin-4-yl]carbonyl}piperidin-4-yl)carbamate] | 190 | 2400 | 1800
2 | Cc1c(N[C@@H](C)C2CC2)nc(-c2cnn3ccsc23)nc1C(=O)N1CCC(NC(=O)C2CC2)CC1 [Example 12, N-(1-{[6-{[(1S)-1-Cyclopropylethyl]amino}-5-methyl-2-(pyrazolo[5,1-b][1,3]thiazol-7-yl)pyrimidin-4-yl]carbonyl}piperidin-4-yl)cyclopropanecarboxamide] | 120 | 1800 | 2200
3 | CCCCC(=O)NC1CCN(C(=O)c2cc(N[C@@H](C)C3CC3)nc(-c3cnn4ccsc34)n2)CC1 [Example 190, N-1-[6-[(1S)-1-cyclopropylethyl]amino-2-(pyrazolo[5,1-b][1,3]thiazol-7-yl)pyrimidine-4-carbonyl]piperidin-4-ylpentanamide] | 65 | 1000 | 6600
4 | COC(=O)NC1CCN(C(=O)c2cc(NC3CCN(S(C)(=O)=O)CC3)nc(-c3cnn4ccsc34)n2)CC1 [Example 200, Methyl 1-[6-[1-(methanesulfonyl)piperidin-4-yl]amino-2-(pyrazolo[5,1-b][1,3]thiazol-7-yl)pyrimidine-4-carbonyl]piperidin-4-ylcarbamate] | 2400 | > 10000 | > 10000
5 | COC(=O)NC1CCN(C(=O)c2cc(Oc3cccnc3)nc(-c3cnn4ccsc34)n2)CC1 [Example 156, Methyl (1-{[2-(pyrazolo[5,1-b][1,3]thiazol-7-yl)-6-(pyridin-3-yloxy)pyrimidin-4-yl]carbonyl}piperidin-4-yl)carbamate] | 820 | – | > 10000
6 | C[C@H](Nc1cc(C(=O)N2CCC(NC(=O)NC3CC3)CC2)nc(-c2cnn3ccsc23)n1)C1CC1 [Example 34, 1-Cyclopropyl-3-(1-{[6-{[(1S)-1-cyclopropylethyl]amino}-2-(pyrazolo[5,1-b][1,3]thiazol-7-yl)pyrimidin-4-yl]carbonyl}piperidin-4-yl)urea] | 350 | 3000 | 1900
7 | COCCOC(=O)NC1CCN(C(=O)c2cc(N[C@H](C)C3CC3)nc(-c3cnn4ccsc34)n2)CC1 [Example 88, 2-Methoxyethyl (1-{[6-{[(1R)-1-cyclopropylethyl]amino}-2-(pyrazolo[5,1-b][1,3]thiazol-7-yl)pyrimidin-4-yl]carbonyl}piperidin-4-yl)carbamate] | 190 | 4100 | 1000
8 | CC(C)C(=O)NC1CCN(C(=O)c2cc(NC(C)(C)C)nc(-c3cnn4ccsc34)n2)CC1 [Example 69, N-(1-{[6-(tert-Butylamino)-2-(pyrazolo[5,1-b][1,3]thiazol-7-yl)pyrimidin-4-yl]carbonyl}piperidin-4-yl)-2-methylpropanamide] | 810 | 5700 | 3500
9 | O=C(NC1CCN(C(=O)c2cc(NCc3ccco3)nc(-c3cnn4ccsc34)n2)CC1)C1CC1 [Example 160, N-1-[6-[(furan-2-yl)methyl]amino-2-(pyrazolo[5,1-b][1,3]thiazol-7-yl)pyrimidine-4-carbonyl]piperidin-4-ylcyclopropanecarboxamide] | 980 | > 10000 | > 10000
10 | COC(=O)NC1CCN(C(=O)c2cc(N[C@H](CO)C(C)(C)C)nc(-c3cnn4ccsc34)n2)CC1 [Example 63, Methyl (1-{[6-{[(2S)-1-hydroxy-3,3-dimethylbutan-2-yl]amino}-2-(pyrazolo[5,1-b][1,3]thiazol-7-yl)pyrimidin-4-yl]carbonyl}piperidin-4-yl)carbamate] | 180 | – | 7300
11 | COC(=O)NC1CCN(C(=O)c2cc(OC3CCC3)nc(-c3cnn4ccsc34)n2)CC1 [Example 65, Methyl (1-{[6-(cyclobutyloxy)-2-(pyrazolo[5,1-b][1,3]thiazol-7-yl)pyrimidin-4-yl]carbonyl}piperidin-4-yl)carbamate] | 130 | – | 3100

More lines, now with the values ahead:

Row | IC50 [1] [nM] | IC50 [2] [nM] | IC50 [3] [nM] | Structure (SMILES)
12 | 130 | 1400 | 2500 | CN(c1cc(C(=O)N2CCC(NC(=O)C3CC3)CC2)nc(-c2cnn3ccsc23)n1)[C@H]1CCC[C@@H]1OC(F)F [Example 5, N-(1-{[6-{[(1S,2S)-2-(Difluoromethoxy)cyclopentyl](methyl)amino}-2-(pyrazolo[5,1-b][1,3]thiazol-7-yl)pyrimidin-4-yl]carbonyl}piperidin-4-yl)cyclopropanecarboxamide]
13 | 300 | > 10000 | > 10000 | COC(=O)NC1CCN(C(=O)c2cc(N[C@H]3CC[C@@H](O)CC3)nc(-c3cnn4ccsc34)n2)CC1 [Example 177, Methyl (1-6-[(cis-4-hydroxycyclohexyl)amino]-2-(pyrazolo[5,1-b][1,3]thiazol-7-yl)pyrimidine-4-carbonylpiperidin-4-yl)carbamate]
14 | 710 | 6500 | 4400 | CO[C@H]1CCC[C@@H]1Nc1cc(C(=O)N2CCC(NC(=O)C3CC3)CC2)nc(-c2cnn3ccsc23)n1 [Example 19, N-(1-{[6-{[(1S,2S)-2-Methoxycyclopentyl]amino}-2-(pyrazolo[5,1-b][1,3]thiazol-7-yl)pyrimidin-4-yl]carbonyl}piperidin-4-yl)cyclopropanecarboxamide]
15 | 3400 | > 10000 | > 10000 | O=C(NC1CCN(C(=O)c2cc(NC3COC3)nc(-c3cnn4ccsc34)n2)CC1)C1CC1 [Example 173, N-(1-6-[(oxetan-3-yl)amino]-2-(pyrazolo[5,1-b][1,3]thiazol-7-yl)pyrimidine-4-carbonylpiperidin-4-yl)cyclopropanecarboxamide]
16 | 5200 | > 10000 | > 10000 | COC(=O)NC1CCN(C(=O)c2cc(N[C@@H]3CCNC3)nc(-c3cnn4ccsc34)n2)CC1 [Example 150, Methyl [1-({2-(pyrazolo[5,1-b][1,3]thiazol-7-yl)-6-[(3R)-pyrrolidin-3-ylamino]pyrimidin-4-yl}carbonyl)piperidin-4-yl]carbamate dihydrochloride]
17 | 280 | 1300 | – | C[C@H](Nc1cc(C(=O)N2CCC(NC(=O)C3CCCC3)CC2)nc(-c2cnn3ccsc23)n1)C1CC1 [Example 166, N-1-[6-[(1S)-1-cyclopropylethyl]amino-2-(pyrazolo[5,1-b][1,3]thiazol-7-yl)pyrimidine-4-carbonyl]piperidin-4-ylcyclopentanecarboxamide]
